Assay results reported in PubChem BioAssay AID328 (DTP/NCI, 2004).
Where “and” joins values, the source holds several entries; their conditions need not be identical. Identical values can stand only once. Inconclusive results and toxic doses are left out.

Tested on: BDF1 mice, P388 leukemia ip, median survival T/C
Test: NCI In Vivo Anticancer Drug Screen. Data for tumor model P388 Leukemia (intraperitoneal) in B6D2F1 (BDF1) mice
Conditions: endpoint: median survival time, higher = longer survival
Summary of the method: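 Transplantable tumour in mice; compound vs vehicle dosing; survival scored; ratio of treated to control reported.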

[1] = dose: 100.0 mg/kg/injection, schedule: Q01DX009 (ip), vehicle: saline with Tween-80
[2] = dose: 200.0 mg/kg/injection, schedule: Q01DX009 (ip), vehicle: saline with Tween-80
[3] = dose: 100.0 mg/kg/injection, schedule: Q04DX003 (ip), vehicle: Klucel (hydroxypropylcellulose) (HPC)
[4] = dose: 200.0 mg/kg/injection, schedule: Q04DX003 (ip), vehicle: Klucel (hydroxypropylcellulose) (HPC)
[5] = dose: 400.0 mg/kg/injection, schedule: Q04DX003 (ip), vehicle: Klucel (hydroxypropylcellulose) (HPC)
[6] = dose: 50.0 mg/kg/injection, schedule: Q01DX009 (ip), vehicle: saline with Tween-80
[7] = dose: 25.0 mg/kg/injection, schedule: Q01DX009 (ip), vehicle: Klucel (hydroxypropylcellulose) (HPC)
[8] = dose: 6.25 mg/kg/injection, schedule: Q01DX009 (ip), vehicle: saline with Tween-80
[9] = dose: 25.0 mg/kg/injection, schedule: Q01DX009 (ip), vehicle: saline with Tween-80
[10] = dose: 50.0 mg/kg/injection, schedule: Q01DX009 (ip), vehicle: saline
[11] = dose: 100.0 mg/kg/injection, schedule: Q01DX009 (ip), vehicle: saline
[12] = dose: 100.0 mg/kg/injection, schedule: Q04DX003 (ip), vehicle: saline
[13] = dose: 200.0 mg/kg/injection, schedule: Q04DX003 (ip), vehicle: saline
[14] = dose: 400.0 mg/kg/injection, schedule: Q04DX003 (ip), vehicle: saline
[15] = dose: 12.5 mg/kg/injection, schedule: Q01DX009 (ip), vehicle: saline with Tween-80
[16] = dose: 100.0 mg/kg/injection, schedule: Q01DX009 (ip), vehicle: Klucel (hydroxypropylcellulose) (HPC)
[17] = dose: 50.0 mg/kg/injection, schedule: Q01DX009 (ip), vehicle: Klucel (hydroxypropylcellulose) (HPC)

## COc1ccc(N/N=C(\C)C2(O)Cc3c(O)c4c(c(O)c3C(OC3CC(N)C(O)C(C)O3)C2)C(=O)c2c(OC)cccc2C4=O)cc1 (stereo not drawn)
dose: 1.73 mg/kg/injection, schedule: Q04DX003 (ip), vehicle: water
  T/C: 123 % of control
dose: 4.8 mg/kg/injection, schedule: Q04DX003 (ip), vehicle: water
  T/C: 157 % of control

## S=c1nc[nH]c2c1ncn2C1CCCC1
[1]
  T/C: 104 % of control
[2]
  T/C: 95 % of control

## CCOC(=O)C1CCCC23CC(CC12)C(C)(C)C3Br (stereo not drawn)
[3]
  T/C: 100 % of control
[4]
  T/C: 90 % of control
[5]
  T/C: 100 % of control

## [F][Fe]([F])([F])([F])([F])[F]
[6]
  T/C: 95 % of control
[1]
  T/C: 101 % of control

## CCOC(=O)N1CCN(CCCOc2ccc(Cl)cc2Cc2ccccc2)CC1
[6]
  T/C: 96 % of control
[1]
  T/C: 96 % of control
[2]
  T/C: 105 % of control

## COc1cc(C=Nc2cc(Cl)c(Cl)c(Cl)c2)ccc1N(CCCl)CCCl
dose: 1.8 mg/kg/injection, schedule: Q01DX009 (ip), vehicle: Klucel (hydroxypropylcellulose) (HPC)
  T/C: 150 % of control
dose: 2.7 mg/kg/injection, schedule: Q01DX009 (ip), vehicle: Klucel (hydroxypropylcellulose) (HPC)
  T/C: 158 % of control
dose: 3.12 mg/kg/injection, schedule: Q01DX009 (ip), vehicle: Klucel (hydroxypropylcellulose) (HPC)
  T/C: 195 % of control
dose: 4.1 mg/kg/injection, schedule: Q01DX009 (ip), vehicle: Klucel (hydroxypropylcellulose) (HPC)
  T/C: 237 % of control and 163 % of control
dose: 6.25 mg/kg/injection, schedule: Q01DX009 (ip), vehicle: Klucel (hydroxypropylcellulose) (HPC)
  T/C: 227 % of control and 240 % of control and 208 % of control
dose: 9.3 mg/kg/injection, schedule: Q01DX009 (ip), vehicle: Klucel (hydroxypropylcellulose) (HPC)
  T/C: 254 % of control and 150 % of control
dose: 12.5 mg/kg/injection, schedule: Q01DX009 (ip), vehicle: Klucel (hydroxypropylcellulose) (HPC)
  T/C: 204 % of control
[7]
  T/C: 120 % of control
dose: 30.0 mg/kg/injection, schedule: Q04DX003 (ip), vehicle: Klucel (hydroxypropylcellulose) (HPC)
  T/C: 186 % of control
dose: 45.0 mg/kg/injection, schedule: Q04DX003 (ip), vehicle: Klucel (hydroxypropylcellulose) (HPC)
  T/C: 272 % of control

## CC(=O)NC1C([Se][As](C)C)OC(COC(C)=O)C(OC(C)=O)C1OC(C)=O (stereo not drawn)
[8]
  T/C: 116 % of control
[9]
  T/C: 115 % of control

## CC1=NC(C(=O)O)C(=O)O1 (stereo not drawn)
[10]
  T/C: 109 % of control
[11]
  T/C: 104 % of control
[12]
  T/C: 95 % of control
dose: 200.0 mg/kg/injection, schedule: Q01DX009 (ip), vehicle: saline
  T/C: 100 % of control
[13]
  T/C: 100 % of control
[14]
  T/C: 87 % of control

## CCC(C)C(NS(=O)(=O)c1ccc(C)cc1)C(=O)O (stereo not drawn)
dose: 50.0 mg/kg/injection, schedule: Q01DX005 (ip), vehicle: saline with Tween-80
  T/C: 96 % of control
dose: 100.0 mg/kg/injection, schedule: Q01DX005 (ip), vehicle: saline with Tween-80
  T/C: 102 % of control
dose: 200.0 mg/kg/injection, schedule: Q01DX005 (ip), vehicle: saline with Tween-80
  T/C: 112 % of control

## CO[C@H]1CC[C@@]2(C)C(=CC[C@H]3[C@@H]4C[C@H](O)C[C@@]4(C)CC[C@@H]32)C1
dose: 12.5 mg/kg/injection, schedule: Q01DX010 (ip), vehicle: other
  T/C: 105 % of control
dose: 25.0 mg/kg/injection, schedule: Q01DX010 (ip), vehicle: other
  T/C: 90 % of control and 120 % of control

## Cc1nc2ccccc2n1C[c-]1[c-][c-][c-][c-]1.[Fe].[c-]1[c-][c-][cH-][c-]1
[6]
  T/C: 91 % of control
[1]
  T/C: 113 % of control
[2]
  T/C: 105 % of control

## O=S1(=O)CC(O)C(Cl)C1 (stereo not drawn)
dose: 100.0 mg/kg/injection, schedule: Q01DX001 (ip), vehicle: saline
  T/C: 104 % of control
[3]
  T/C: 100 % of control
dose: 200.0 mg/kg/injection, schedule: Q01DX001 (ip), vehicle: saline
  T/C: 100 % of control
[4]
  T/C: 100 % of control
[5]
  T/C: 100 % of control

## CN(C)c1nc(NC(=O)NC(=O)c2c(F)cccc2F)nc(N(C)C)n1
[9]
  T/C: 88 % of control

## O=C(O)CC1SC(=S)N(c2ccccc2)C1=O (stereo not drawn)
[6]
  T/C: 101 % of control
[1]
  T/C: 105 % of control

## CCCCOc1ccc(C(=O)NN)cc1
[8]
  T/C: 118 % of control
dose: 6.25 mg/kg/injection, schedule: Q04DX003 (ip), vehicle: saline with Tween-80
  T/C: 100 % of control
[15]
  T/C: 108 % of control
dose: 12.5 mg/kg/injection, schedule: Q04DX003 (ip), vehicle: saline with Tween-80
  T/C: 91 % of control and 92 % of control
[9]
  T/C: 99 % of control
dose: 25.0 mg/kg/injection, schedule: Q04DX003 (ip), vehicle: saline with Tween-80
  T/C: 90 % of control and 106 % of control
[6]
  T/C: 115 % of control
dose: 50.0 mg/kg/injection, schedule: Q04DX003 (ip), vehicle: saline with Tween-80
  T/C: 97 % of control and 98 % of control
[1]
  T/C: 97 % of control

## Cc1ccc(SS(=O)(=O)c2ccc(C)cc2)cc1
dose: 25.0 mg/kg/injection, schedule: Q01DX009 (ip), vehicle: saline sonified
  T/C: 108 % of control
dose: 50.0 mg/kg/injection, schedule: Q01DX009 (ip), vehicle: saline sonified
  T/C: 117 % of control
dose: 100.0 mg/kg/injection, schedule: Q01DX009 (ip), vehicle: saline sonified
  T/C: 117 % of control

## CCOC(=O)CNCc1cccnc1
[12]
  T/C: 120 % of control
[13]
  T/C: 117 % of control
[14]
  T/C: 118 % of control

## CCCCOC1OCN(c2ccc(OC)cc2)CC1(C)C (stereo not drawn)
dose: 50.0 mg/kg/injection, schedule: Q01DX009 (ip), vehicle: saline + alcohol
  T/C: 114 % of control
dose: 100.0 mg/kg/injection, schedule: Q01DX009 (ip), vehicle: saline + alcohol
  T/C: 107 % of control
dose: 200.0 mg/kg/injection, schedule: Q01DX009 (ip), vehicle: saline + alcohol
  T/C: 118 % of control

## NC(=S)n1cccn1
dose: 50.0 mg/kg/injection, schedule: Q01DX010 (ip), vehicle: water
  T/C: 118 % of control

## CC(=O)OC1C(=O)C(C)(C)CSCC1(C)C (stereo not drawn)
[16]
  T/C: 104 % of control
dose: 200.0 mg/kg/injection, schedule: Q01DX009 (ip), vehicle: Klucel (hydroxypropylcellulose) (HPC)
  T/C: 95 % of control
dose: 400.0 mg/kg/injection, schedule: Q01DX009 (ip), vehicle: Klucel (hydroxypropylcellulose) (HPC)
  T/C: 104 % of control

## C[C@]12CC[C@H](O)C[C@@H]1CC[C@@H]1[C@@H]2C(=O)C[C@@]2(C)[C@H]1CC[C@]2(O)C(=O)CBr
[15]
  T/C: 114 % of control
[17]
  T/C: 113 % of control
[16]
  T/C: 109 % of control
[3]
  T/C: 100 % of control
[2]
  T/C: 118 % of control
[4]
  T/C: 109 % of control
[5]
  T/C: 113 % of control

## CCN1CCC(O)(c2ccc(Br)cc2)C1 (stereo not drawn)
[10]
  T/C: 106 % of control
[11]
  T/C: 97 % of control

## O=C(CS)OCCOC(=O)CS
[7]
  T/C: 104 % of control
dose: 25.0 mg/kg/injection, schedule: Q04DX003 (ip), vehicle: saline
  T/C: 109 % of control
[17]
  T/C: 100 % of control
dose: 50.0 mg/kg/injection, schedule: Q04DX003 (ip), vehicle: saline
  T/C: 104 % of control
[16]
  T/C: 95 % of control
[12]
  T/C: 95 % of control
